Earlier results in US20060177392A1, “Oil-based composition for acne” (priority 2005, published 2006).

Experiments:
[1] = taken internally
[2] = typical dose 0.5 to 2 mg/kg body weight per 24 hours; human fetal abnormalities and spontaneous abortions

Compound | Single megadose that can induce brain swelling, headache, drowsiness, vomiting, and/or death ([1]; single megadose) | Sustained dose that may be toxic ([1]; sustained doses) | Teratogenicity [2]
Vitamin A | 1,500,000 IU | over 50,000 IU | –
CC1=C(/C=C/C(C)=C/C=C/C(C)=C\C(=O)O)C(C)(C)CCC1 [Accutane, 13-cis-retinoic acid] | – | – | often teratogenic
